Patent EP4678638A1, “NEW E3 UBIQUITIN LIGASE LIGAND, PROTEIN DEGRADATION AGENT AND USE THEREOF” (priority 2023, dated 2024)

Experiments:
Type in all cases: cell-based
Settings in all cases: Table D16
WEE1 = target: T1, WEE1 (Homo sapiens, UniProt P30291+Q96SW2); test: Western blot degradation of WEE1 (hPBMC)
T1 construct: evaluate the effects of the compounds of the present disclosure on the expression of target proteins in cells; endogenous in cells; host or cells: hPBMC
Procedure: (§1) Conventional Western blot assay was performed to evaluate the effects of the compounds of the present disclosure on the expression of target proteins in cells.
(§2) (1) Cell Seeding and Protein Harvesting: The selected cells were processed according to the cell seeding procedure and protein harvesting procedure in Table III-2. Table III-2 Cell Seeding and Protein Harvesting Procedures
(§3) (2) To the collected supernatant, 5X SDS sample loading buffer was added, followed by denaturation at 95°C for 5 minutes. The denatured samples were then separated by SDS-PAGE electrophoresis on a polyacrylamide gel. Proteins were transferred to a nitrocellulose membrane (0.45 µm NC membrane), blocked with blocking buffer at room temperature for 1 hour, and subjected to antibody incubation and development procedures according to the antibody manufacturer's instructions (Cell Signaling Technology).
(§4) Half-Maximal Degradation Concentration value (the drug concentration required for degrading proteins by 50%, abbreviated as DC50) reads method: comparing the grayscale values of Western blot bands from drug-treated samples with those from blank DMSO-treated controls, and identifying the drug concentration range at which the grayscale value is half that of the DMSO-treated control bands.
(§5) DC50 values can be calculated using ImageJ software to measure grayscale values of Western blot bands from drug-treated samples. The concentration-response curve is fitted to estimate the drug concentration corresponding to half the grayscale value.
(§6) Target protein remaining (%) refers to the percentage of target protein remaining in hPBMC cells after treatment with protein degrader compounds.
(§7) Calculation method for target protein remaining (%): Use ImageJ software to measure grayscale values of Western blot bands from drug (protein degrader)-treated samples. The grayscale value of drug-treated bands is divided by that of internal control protein bands, and the resulting quotient is normalized to obtain the relative percentage of remaining target protein after protein degrader treatment.
(§8) Target protein degradation rate (%) = 100% - target protein remaining (%).

IKZF2 = target: T2, IKZF2 (Homo sapiens, UniProt Q96SW2+Q9UKS7); test: Western blot degradation of IKZF2 (hPBMC)
T2 construct: evaluate the effects of the compounds of the present disclosure on the expression of target proteins in cells; endogenous in cells; host or cells: hPBMC
Procedure: as §1, §2, §3, §4, §5, §6, §7, §8

IKZF1 = target: T3, IKZF1 (Homo sapiens, UniProt Q13422+Q96SW2); test: Western blot degradation of IKZF1 (hPBMC)
T3 construct: evaluate the effects of the compounds of the present disclosure on the expression of target proteins in cells; endogenous in cells; host or cells: hPBMC
Procedure: as §1, §2, §3, §4, §5, §6, §7, §8

GSPT1 = target: T4, GSPT1 (Homo sapiens, UniProt P15170+Q96SW2); test: Western blot degradation of GSPT1 (hPBMC)
T4 construct: evaluate the effects of the compounds of the present disclosure on the expression of target proteins in cells; endogenous in cells; host or cells: hPBMC
Procedure: as §1, §2, §3, §4, §5, §6, §7, §8

IKZF3 = target: T5, IKZF3 (Homo sapiens, UniProt Q96SW2+Q9UKT9); test: Western blot degradation of IKZF3 (hPBMC)
T5 construct: evaluate the effects of the compounds of the present disclosure on the expression of target proteins in cells; endogenous in cells; host or cells: hPBMC
Procedure: as §1, §2, §3, §4, §5, §6, §7, §8

CK1a = target: T6, CK1a (Homo sapiens, UniProt P48729+Q96SW2); test: Western blot degradation of CK1a (hPBMC)
T6 construct: evaluate the effects of the compounds of the present disclosure on the expression of target proteins in cells; endogenous in cells; host or cells: hPBMC
Procedure: as §1, §2, §3, §4, §5, §6, §7, §8

T5 sequence (Q9UKT9 whole entry): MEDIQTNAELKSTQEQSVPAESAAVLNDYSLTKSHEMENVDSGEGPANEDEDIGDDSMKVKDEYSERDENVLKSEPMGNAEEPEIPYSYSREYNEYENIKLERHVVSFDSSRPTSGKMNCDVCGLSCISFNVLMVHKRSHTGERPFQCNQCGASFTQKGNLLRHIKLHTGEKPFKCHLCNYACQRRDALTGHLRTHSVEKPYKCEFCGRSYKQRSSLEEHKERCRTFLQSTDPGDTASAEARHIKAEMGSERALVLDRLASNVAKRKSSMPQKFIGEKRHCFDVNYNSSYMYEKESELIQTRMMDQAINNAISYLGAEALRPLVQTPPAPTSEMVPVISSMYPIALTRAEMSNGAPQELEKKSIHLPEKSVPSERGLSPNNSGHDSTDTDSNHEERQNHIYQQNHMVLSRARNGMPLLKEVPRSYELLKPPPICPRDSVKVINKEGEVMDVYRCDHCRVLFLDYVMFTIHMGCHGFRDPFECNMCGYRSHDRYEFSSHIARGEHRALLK
T5 sequence (Q96SW2 whole entry): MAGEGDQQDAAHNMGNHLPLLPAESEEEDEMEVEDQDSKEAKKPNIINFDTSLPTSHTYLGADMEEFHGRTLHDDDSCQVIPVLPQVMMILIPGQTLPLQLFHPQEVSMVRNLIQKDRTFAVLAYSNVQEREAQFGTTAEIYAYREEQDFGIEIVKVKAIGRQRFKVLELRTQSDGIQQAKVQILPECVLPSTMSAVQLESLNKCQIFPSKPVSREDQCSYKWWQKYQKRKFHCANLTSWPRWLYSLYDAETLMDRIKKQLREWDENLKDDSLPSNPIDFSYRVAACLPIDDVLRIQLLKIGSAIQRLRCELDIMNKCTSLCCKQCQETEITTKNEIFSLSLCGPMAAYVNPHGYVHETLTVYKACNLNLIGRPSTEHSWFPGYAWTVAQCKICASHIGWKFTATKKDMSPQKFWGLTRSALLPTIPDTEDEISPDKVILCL
T5 sequence (Q16531 whole entry partner): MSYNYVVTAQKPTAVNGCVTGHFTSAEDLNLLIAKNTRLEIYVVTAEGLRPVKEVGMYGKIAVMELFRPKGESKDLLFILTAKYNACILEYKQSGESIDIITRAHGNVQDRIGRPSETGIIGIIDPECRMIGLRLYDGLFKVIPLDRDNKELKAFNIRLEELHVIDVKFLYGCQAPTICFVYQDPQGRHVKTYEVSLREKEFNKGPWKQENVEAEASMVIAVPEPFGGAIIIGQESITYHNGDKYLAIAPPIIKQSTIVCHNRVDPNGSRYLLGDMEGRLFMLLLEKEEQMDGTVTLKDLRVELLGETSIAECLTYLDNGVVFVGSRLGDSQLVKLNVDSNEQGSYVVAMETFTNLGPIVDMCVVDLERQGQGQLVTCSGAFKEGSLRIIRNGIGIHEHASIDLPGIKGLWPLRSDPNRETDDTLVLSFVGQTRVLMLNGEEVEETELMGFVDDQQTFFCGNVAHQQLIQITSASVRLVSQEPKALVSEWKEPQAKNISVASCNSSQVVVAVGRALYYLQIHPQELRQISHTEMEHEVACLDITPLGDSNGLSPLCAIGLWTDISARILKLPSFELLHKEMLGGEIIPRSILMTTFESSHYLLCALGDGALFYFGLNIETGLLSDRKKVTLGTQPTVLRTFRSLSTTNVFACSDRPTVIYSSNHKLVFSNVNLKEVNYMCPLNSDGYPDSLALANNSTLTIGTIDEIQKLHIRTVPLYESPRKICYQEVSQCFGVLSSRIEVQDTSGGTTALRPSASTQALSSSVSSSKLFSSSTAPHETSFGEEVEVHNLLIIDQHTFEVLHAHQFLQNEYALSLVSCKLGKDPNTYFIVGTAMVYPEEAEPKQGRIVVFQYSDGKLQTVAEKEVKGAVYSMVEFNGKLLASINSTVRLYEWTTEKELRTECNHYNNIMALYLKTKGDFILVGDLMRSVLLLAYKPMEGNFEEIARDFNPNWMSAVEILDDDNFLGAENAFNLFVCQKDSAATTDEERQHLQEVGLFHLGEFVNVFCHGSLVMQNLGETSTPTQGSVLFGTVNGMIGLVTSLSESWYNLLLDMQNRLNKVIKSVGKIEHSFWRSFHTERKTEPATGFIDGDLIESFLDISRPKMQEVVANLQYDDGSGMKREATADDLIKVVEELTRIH
T1 sequence (P30291 whole entry): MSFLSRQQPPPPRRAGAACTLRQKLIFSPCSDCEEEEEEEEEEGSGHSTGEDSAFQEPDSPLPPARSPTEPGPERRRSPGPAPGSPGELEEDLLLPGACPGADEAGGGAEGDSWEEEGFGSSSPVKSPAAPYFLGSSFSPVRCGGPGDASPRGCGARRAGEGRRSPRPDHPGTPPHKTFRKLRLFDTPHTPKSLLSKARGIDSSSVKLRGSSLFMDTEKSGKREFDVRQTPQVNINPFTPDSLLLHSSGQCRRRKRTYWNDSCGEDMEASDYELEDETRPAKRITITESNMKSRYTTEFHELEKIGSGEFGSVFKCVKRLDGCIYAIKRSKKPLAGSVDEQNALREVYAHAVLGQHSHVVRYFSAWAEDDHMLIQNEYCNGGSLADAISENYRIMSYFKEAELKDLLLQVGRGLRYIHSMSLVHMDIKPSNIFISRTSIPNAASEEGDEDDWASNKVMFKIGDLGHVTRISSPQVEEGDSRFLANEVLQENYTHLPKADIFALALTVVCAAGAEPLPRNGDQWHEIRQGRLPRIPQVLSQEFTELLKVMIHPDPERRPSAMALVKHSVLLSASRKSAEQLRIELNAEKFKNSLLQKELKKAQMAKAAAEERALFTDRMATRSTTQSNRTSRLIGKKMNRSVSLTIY
T1 sequence (Q96SW2 whole entry): as the sequence (Q96SW2 whole entry) above
T1 sequence (Q16531 whole entry partner): as the sequence (Q16531 whole entry partner) above
T6 sequence (P48729 whole entry): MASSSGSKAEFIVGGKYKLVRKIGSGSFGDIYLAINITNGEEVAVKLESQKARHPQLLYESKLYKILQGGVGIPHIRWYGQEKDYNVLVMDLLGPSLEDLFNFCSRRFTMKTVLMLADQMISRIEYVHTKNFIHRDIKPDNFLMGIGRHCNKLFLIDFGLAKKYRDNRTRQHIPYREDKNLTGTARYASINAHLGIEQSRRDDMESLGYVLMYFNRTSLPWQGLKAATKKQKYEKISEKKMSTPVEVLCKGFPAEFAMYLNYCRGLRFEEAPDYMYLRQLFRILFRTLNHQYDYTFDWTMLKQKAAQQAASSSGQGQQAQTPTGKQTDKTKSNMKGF
T6 sequence (Q96SW2 whole entry): as the sequence (Q96SW2 whole entry) above
T6 sequence (Q16531 whole entry partner): as the sequence (Q16531 whole entry partner) above
T2 sequence (Q9UKS7 whole entry): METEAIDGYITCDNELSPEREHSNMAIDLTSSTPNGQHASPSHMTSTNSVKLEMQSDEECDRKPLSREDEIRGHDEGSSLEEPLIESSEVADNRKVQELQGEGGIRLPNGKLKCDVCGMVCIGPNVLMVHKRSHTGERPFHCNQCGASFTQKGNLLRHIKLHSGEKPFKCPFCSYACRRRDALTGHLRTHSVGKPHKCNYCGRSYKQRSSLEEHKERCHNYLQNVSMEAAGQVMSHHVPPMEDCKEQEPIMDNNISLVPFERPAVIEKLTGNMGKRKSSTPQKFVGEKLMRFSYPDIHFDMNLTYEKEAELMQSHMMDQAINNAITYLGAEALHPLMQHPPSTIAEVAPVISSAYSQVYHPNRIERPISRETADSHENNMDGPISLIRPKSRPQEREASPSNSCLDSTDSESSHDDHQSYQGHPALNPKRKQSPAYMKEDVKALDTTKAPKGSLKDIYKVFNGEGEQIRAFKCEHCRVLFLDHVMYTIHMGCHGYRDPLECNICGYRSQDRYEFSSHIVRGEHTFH
T2 sequence (Q96SW2 whole entry): as the sequence (Q96SW2 whole entry) above
T2 sequence (Q16531 whole entry partner): as the sequence (Q16531 whole entry partner) above
T4 sequence (P15170 whole entry): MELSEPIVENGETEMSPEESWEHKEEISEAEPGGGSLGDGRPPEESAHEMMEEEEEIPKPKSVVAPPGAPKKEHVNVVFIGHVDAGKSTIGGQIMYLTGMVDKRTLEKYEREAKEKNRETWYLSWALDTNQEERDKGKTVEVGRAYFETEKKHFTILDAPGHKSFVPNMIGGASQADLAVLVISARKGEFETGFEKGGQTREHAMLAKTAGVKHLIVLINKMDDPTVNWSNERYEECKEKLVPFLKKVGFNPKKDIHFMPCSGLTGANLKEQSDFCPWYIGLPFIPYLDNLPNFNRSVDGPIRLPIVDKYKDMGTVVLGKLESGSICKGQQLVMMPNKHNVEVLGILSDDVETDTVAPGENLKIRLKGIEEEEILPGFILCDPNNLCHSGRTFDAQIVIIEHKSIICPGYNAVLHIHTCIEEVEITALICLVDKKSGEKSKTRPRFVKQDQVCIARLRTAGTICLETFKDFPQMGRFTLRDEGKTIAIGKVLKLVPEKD
T4 sequence (Q96SW2 whole entry): as the sequence (Q96SW2 whole entry) above
T4 sequence (Q16531 whole entry partner): as the sequence (Q16531 whole entry partner) above

Row | SMILES | Degradation of substrate protein WEE1 (substrate protein remaining %) (WEE1) | Degradation of substrate protein IKZF2 (substrate protein remaining %) (IKZF2) | Degradation of substrate protein IKZF1 (substrate protein remaining %) (IKZF1) | Degradation of substrate protein GSPT1 (substrate protein remaining %) (GSPT1) | Degradation of substrate protein IKZF3 (substrate protein remaining %) (IKZF3) | Degradation of substrate protein CKla (substrate protein remaining %) (CK1a)
1 | O=C1CCN(c2ccc(CCl)cn2)C(=O)N1 [GT-07009, 1-(5-(Chloromethyl)pyridin-2-yl)dihydropyrimidine-2,4(1H,3H)-dione] | B (B is defined as substrate protein remaining % > 80%) | B (B is defined as substrate protein remaining % > 80%) | B (B is defined as substrate protein remaining % > 80%) | B (B is defined as substrate protein remaining % > 80%) | B (B is defined as substrate protein remaining % > 80%) | A (A is defined as 0% ≤ substrate protein remaining % ≤ 80%)
2 | O=C1CCC(c2ccc(CO)nc2)C(=O)N1 (stereo not drawn) [GT-07010, 3-(6-(Hydroxymethyl)pyridin-3-yl)piperidine-2,6-dione] | B (B is defined as substrate protein remaining % > 80%) | B (B is defined as substrate protein remaining % > 80%) | B (B is defined as substrate protein remaining % > 80%) | A (A is defined as 0% ≤ substrate protein remaining % ≤ 80%) | A (A is defined as 0% ≤ substrate protein remaining % ≤ 80%) | A (A is defined as 0% ≤ substrate protein remaining % ≤ 80%)
3 | NCc1ccc(N2CCC(=O)NC2=O)nc1 [GT-07012, 1-(5-(Aminomethyl)pyridin-2-yl)dihydropyrimidine-2,4(1H,3H)-dione] | A (A is defined as 0% ≤ substrate protein remaining % ≤ 80%) | B (B is defined as substrate protein remaining % > 80%) | B (B is defined as substrate protein remaining % > 80%) | A (A is defined as 0% ≤ substrate protein remaining % ≤ 80%) | A (A is defined as 0% ≤ substrate protein remaining % ≤ 80%) | B (B is defined as substrate protein remaining % > 80%)
4 | NCc1ccc(N2CCC(=O)NC2=O)cn1 [GT-07048, 1-(6-(Aminomethyl)pyridin-3-yl)dihydropyrimidine-2,4(1H,3H)-dione] | B (B is defined as substrate protein remaining % > 80%) | A (A is defined as 0% ≤ substrate protein remaining % ≤ 80%) | A (A is defined as 0% ≤ substrate protein remaining % ≤ 80%) | A (A is defined as 0% ≤ substrate protein remaining % ≤ 80%) | A (A is defined as 0% ≤ substrate protein remaining % ≤ 80%) | A (A is defined as 0% ≤ substrate protein remaining % ≤ 80%)
5 | O=C1CCC(c2cnc(F)c(CO)c2)C(=O)N1 (stereo not drawn) [GT-07074, 3-(6-Fluoro-5-(hydroxymethyl)pyridin-3-yl)piperidine-2,6-dione] | B (B is defined as substrate protein remaining % > 80%) | A (A is defined as 0% ≤ substrate protein remaining % ≤ 80%) | B (B is defined as substrate protein remaining % > 80%) | A (A is defined as 0% ≤ substrate protein remaining % ≤ 80%) | A (A is defined as 0% ≤ substrate protein remaining % ≤ 80%) | B (B is defined as substrate protein remaining % > 80%)
6 | O=C1CCC(c2ccc(CO)cn2)C(=O)N1 (stereo not drawn) [GT-07075, 3-(5-(Hydroxymethyl)pyridin-2-yl)piperidine-2,6-dione] | B (B is defined as substrate protein remaining % > 80%) | A (A is defined as 0% ≤ substrate protein remaining % ≤ 80%) | B (B is defined as substrate protein remaining % > 80%) | A (A is defined as 0% ≤ substrate protein remaining % ≤ 80%) | A (A is defined as 0% ≤ substrate protein remaining % ≤ 80%) | B (B is defined as substrate protein remaining % > 80%)
7 | O=C1CCC(Nc2ncccc2CO)C(=O)N1 (stereo not drawn) [GT-07197, 3-((3-(Hydroxymethyl)pyridin-2-yl)amino)piperidine-2,6-dione] | B (B is defined as substrate protein remaining % > 80%) | B (B is defined as substrate protein remaining % > 80%) | B (B is defined as substrate protein remaining % > 80%) | A (A is defined as 0% ≤ substrate protein remaining % ≤ 80%) | B (B is defined as substrate protein remaining % > 80%) | A (A is defined as 0% ≤ substrate protein remaining % ≤ 80%)
8 | O=C1CCC(c2ncc(CO)cc2F)C(=O)N1 (stereo not drawn) [GT-07443, 3-(3-Fluoro-5-(hydroxymethyl)pyridin-2-yl)piperidine-2,6-dione] | A (A is defined as 0% ≤ substrate protein remaining % ≤ 80%) | A (A is defined as 0% ≤ substrate protein remaining % ≤ 80%) | A (A is defined as 0% ≤ substrate protein remaining % ≤ 80%) | A (A is defined as 0% ≤ substrate protein remaining % ≤ 80%) | B (B is defined as substrate protein remaining % > 80%) | A (A is defined as 0% ≤ substrate protein remaining % ≤ 80%)
9 | O=C1CCC(c2cc(CO)c(F)cn2)C(=O)N1 (stereo not drawn) [GT-07444, 3-(5-Fluoro-4-(hydroxymethyl)pyridin-2-yl)piperidine-2,6-dione] | B (B is defined as substrate protein remaining % > 80%) | A (A is defined as 0% ≤ substrate protein remaining % ≤ 80%) | B (B is defined as substrate protein remaining % > 80%) | B (B is defined as substrate protein remaining % > 80%) | A (A is defined as 0% ≤ substrate protein remaining % ≤ 80%) | B (B is defined as substrate protein remaining % > 80%)
10 | CC(C)(C)[Si](C)(C)OCc1cncc(NC2CCC(=O)NC2=O)c1 (stereo not drawn) [GT-07449, 3-((5-(((tert-Butyldimethylsilyl)oxy)methyl)pyridin-3-yl)amino)piperidine-2,6-dione] | B (B is defined as substrate protein remaining % > 80%) | A (A is defined as 0% ≤ substrate protein remaining % ≤ 80%) | B (B is defined as substrate protein remaining % > 80%) | B (B is defined as substrate protein remaining % > 80%) | B (B is defined as substrate protein remaining % > 80%) | B (B is defined as substrate protein remaining % > 80%)
